From the NIST ThermoML archive (doi:10.1016/j.tca.2011.06.020)
± gives the expanded uncertainty stated by the source.

Assays:
[1] = 101 kPa, Liquid; for speed of sound: Sing-around technique in a fixed-path interferometer; for mass density: Vibrating tube method
[2] = xn = mol fraction of the nth substance listed; conditions: 101 kPa, Liquid; for speed of sound: Sing-around technique in a fixed-path interferometer; for mass density: Vibrating tube method

Cc1ccccc1N [2-methylaniline]
[1]
Conditions | mass density [kg/m3] | speed of sound [m/s]
298.15 K | 994.351 ± 0.23 | 1602.6 ± 2.4
303.15 K | 990.224 ± 0.45 | 1577.8 ± 2.6
308.15 K | 986.069 ± 0.23 | 1558.4 ± 2.4

CNC=O [N-methylformamide]
[1]
Conditions | mass density [kg/m3] | speed of sound [m/s]
298.15 K | 999.004 ± 0.84 | 1432.9 ± 2.9
303.15 K | 994.653 ± 0.83 | 1417.7 ± 2.9
308.15 K | 990.302 ± 0.83 | 1402.5 ± 2.9

CNC=O [N-methylformamide] + Cc1ccccc1N
[2], x2 = 0
Conditions | mass density [kg/m3] | speed of sound [m/s]
298.15 K | 999.004 ± 0.84 | 1432.9 ± 2.9
303.15 K | 994.653 ± 0.83 | 1417.7 ± 2.9
308.15 K | 990.302 ± 0.83 | 1402.5 ± 2.9

C1CCOCC1 [tetrahydropyran]
[1]
Conditions | mass density [kg/m3] | speed of sound [m/s]
298.15 K | 879.136 ± 0.7 | 1269.9 ± 2.9
303.15 K | 873.992 ± 0.7 | 1246.8 ± 2.9
308.15 K | 868.831 ± 0.69 | 1224.5 ± 2.9

C1CCOCC1 [tetrahydropyran] + CNC=O
[2], x1 = 1
Conditions | mass density [kg/m3] | speed of sound [m/s]
298.15 K | 879.136 ± 0.7 | 1269.9 ± 2.9
303.15 K | 873.992 ± 0.7 | 1246.8 ± 2.9
308.15 K | 868.831 ± 0.69 | 1224.5 ± 2.9

C1CCOCC1 [tetrahydropyran] + Cc1ccccc1N
[2], x2 = 0
Conditions | mass density [kg/m3] | speed of sound [m/s]
298.15 K | 879.136 ± 0.7 | 1269.9 ± 2.9
303.15 K | 873.992 ± 0.7 | 1246.8 ± 2.9
308.15 K | 868.831 ± 0.69 | 1224.5 ± 2.9
